Data set [1] concerns the target MCL-1 (Homo sapiens, UniProt Q07820). Description: Protein-protein interaction assay MCL-1/Noxa BH3 peptide (MCL-1 assay), TR-FRET. The following applies: MBP-MCL-1 / Noxa BH3-derived peptide, median. It counts as binding. In a few lines: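 Inhibition values were normalized between DMSO controls with all reagents and controls lacking MCL-1. The binding competition used 1 nM MBP-MCL-1 in pH 7 Tris buffer containing 50 mM KF and 100 mM NaCl, with a 10 min compound preincubation at 22 °C.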

Data set [2] has as its system SUDHL5. Description: Induction of caspase-3/7 activity (Caspase-Glo 3/7), SUDHL5. It is filed as cell-based. The following applies: caspase-3/7 induction, SUDHL5 cells, 3 h treatment, median. The method, boiled down: (§1)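 Apoptosis induction measured as caspase-3/7 activity (Caspase-Glo 3/7) in DLBCL lines after 3 h treatment at 37 °C; EC50 derived relative to the reference compound's maximal induction, with C0 fixed at 1.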

Data set [3] deals with SUDHL10. Description: Induction of caspase-3/7 activity (Caspase-Glo 3/7), SUDHL10. The following applies: caspase-3/7 induction, SUDHL10 cells, 3 h treatment, median. It is filed as cell-based. The method, boiled down:
as §1

For data set [4], the system named is SUDHL5. The data set is described as follows: Anti-proliferative effect (CellTiter-Glo, 72 h), SUDHL5. The conditions noted are these: SUDHL5 cells, antiproliferation, median, read-out: Antiproli SUDHL5 [M] (median). It counts as cell-based. The method, boiled down:
(§2)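 After seeding, one plate is read right away by CellTiter-Glo luminescence to fix time zero. The treated plates stay at 37 °C in humidified air for 72 h and are then measured with the same reagent and 10 min incubation.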

Data set [5] relates to SUDHL10. Description: Anti-proliferative effect (CellTiter-Glo, 72 h), SUDHL10. It counts as cell-based. The conditions noted are these: SUDHL10 cells, antiproliferation, median, read-out: Antiproli SUDHL10 [M] (median). The method, boiled down:
as §2

Data set [6] has as its system A2780. The data set is described as follows: Anti-proliferative effect (CellTiter-Glo, 72 h), A2780. It is filed as cell-based. The following applies: A2780 cells, median, read-out: IC50 antiproliferation assay A2780 [M] (median). In a few lines:
as §2

In data set [7] the test system is MV-4-11. Description: Anti-proliferative effect (CellTiter-Glo, 72 h), MV-4-11. It counts as cell-based. The conditions noted are these: Homo sapiens, MV4-11, 72 h, MV-4-11 cells, median, read-out: IC50 antiproliferation assay MV-4-11 [M] (median). In a few lines:
as §2

Data set [8] relates to SUDHL5. The data set is described as follows: Induction of cytotoxicity (CellTiter-Glo, 5 h), SUDHL5.
The subject of data set [9] is SUDHL10. The data set is described as follows: Induction of cytotoxicity (CellTiter-Glo, 5 h), SUDHL10.
The mark [10] stands for this setting: Homo sapiens, SU-DHL-5, 72 h, 72 h incubation.
Setting [11] is: Homo sapiens, SU-DHL10, 72 h, 72 h incubation.
[12] abbreviates: Homo sapiens, SU-DHL-5, 5 h, read-out: Cytotox SUDHL5 [M] (median), SUDHL5 cells, cytotoxicity induction, CellTiter-Glo, 5 h incubation, median.
[13] abbreviates: Homo sapiens, SU-DHL10, 5 h, read-out: Cytotox SUDHL10 [M] (median), SUDHL10 cells, cytotoxicity induction, CellTiter-Glo, 5 h incubation, median.
Setting [14] is: Homo sapiens, SU-DHL-5, 72 h, 72 h.
Where [15] appears, read: Homo sapiens, SU-DHL-5, 5 h, read-out: Cytotox SUDHL5 [M] (median), SUDHL5 cells, cytotoxicity induction, CellTiter-Glo, 5 h, median.
The mark [16] stands for this setting: Homo sapiens, SU-DHL10, 5 h, read-out: Cytotox SUDHL10 [M] (median), SUDHL10 cells, cytotoxicity induction, CellTiter-Glo, 5 h, median.
[17] abbreviates: read-out: Cytotox SUDHL5 [M] (median), SUDHL5 cells, cytotoxicity induction, CellTiter-Glo, 5 h incubation, median.
Setting [18] is: read-out: Cytotox SUDHL10 [M] (median), SUDHL10 cells, cytotoxicity induction, CellTiter-Glo, 5 h incubation, median.

Values joined by “and” are separate entries in the source; they are usually repeats but may differ in a detail not shown here. Equal values may be shown once. Where a name gives a salt, the structure may show the parent alone. Read-outs that look alike come from different tables or passages of the source. A value given as a limit tells only on which side of the number the result lay.

MCL-1, sequence (Q07820 whole entry): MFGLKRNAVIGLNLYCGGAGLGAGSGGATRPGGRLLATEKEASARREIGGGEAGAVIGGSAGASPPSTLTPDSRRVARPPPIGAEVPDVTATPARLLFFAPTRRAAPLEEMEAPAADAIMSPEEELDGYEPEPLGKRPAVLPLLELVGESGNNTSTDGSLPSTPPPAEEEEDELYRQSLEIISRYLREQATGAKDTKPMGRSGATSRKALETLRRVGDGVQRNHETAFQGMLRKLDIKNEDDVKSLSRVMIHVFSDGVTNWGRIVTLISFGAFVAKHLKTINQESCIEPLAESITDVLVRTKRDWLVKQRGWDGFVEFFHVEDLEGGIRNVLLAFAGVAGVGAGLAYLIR

On to `O=C(O)c1c(CCCOc2cccc3ccccc23)c2cccc3c2n1CCCCOCc1nn2c(c1-3)CCCC2` (racemic) [Example 253, (rac)-1-[3-(naphthalen-1-yloxy)propyl]-4,5,6,7,12,13,14,15-octahydro-9H-pyrido[1″,2″:1′,5′]pyrazolo[4′,3′:9,10][1,6]oxazacycloundecino[8,7,6-hi]indole-2-carboxylic Acid], for which the IC50 in data set [1] came to 0.00867 µM; in data set [4] (setting [10]), 5.74e-06 M; in [5] (setting [11]) it was 1.17e-05 M; in data set [6] (Homo sapiens, A2780, 72 h), 2.83e-05 M; in [7], 7.59e-06 M; in data set [8] (setting [12]), 6.7e-06 M. For the same compound, the IC50 in data set [9] (setting [13]) came out at 1.96e-05 M. Further, the EC50 turned out to be 6.7 µM in [2] (Homo sapiens, SU-DHL-5, 3 h) and 18.6 µM in [3] (Homo sapiens, SU-DHL10, 3 h).
`Cc1ccc2c(C(C)CCOc3cccc4cc(F)ccc34)c(C(=O)O)n3c2c1-c1c(nn(C)c1C)COCCCC3` (racemic) [Example 276, 7-{4-[(6-fluoronaphthalen-1-yl)oxy]butan-2-yl}-2,3,4-trimethyl-2,10,11,12,13,15-hexahydropyrazolo[4′3′:9,10][1,6]oxazacycloundecino[8,7,6-hi]indole-8-carboxylic Acid]: the IC50 in data set [1] amounted to 0.00756 µM; in data set [4] (setting [10]) it was 5.85e-06 M; in [5] (setting [11]), 7.32e-06 M; in [6] (Homo sapiens, A2780, 72 h), 1.22e-05 M; in [7] it was 1.2e-05 M; in data set [8] (setting [12]), 5.23e-06 M. For the same compound, the IC50 in data set [9] (setting [13]) was 1.03e-05 M. Moreover, the concentration for a half-maximal effect (EC50) stood at 4.07 µM in data set [2] (Homo sapiens, SU-DHL-5, 3 h) and 10.3 µM in [3] (Homo sapiens, SU-DHL10, 3 h).
Turning to `Cc1c2c(nn1CCN1CCOCC1)COCCCCn1c(C(=O)O)c(CCCOc3cccc4cc(F)ccc34)c3cccc-2c31` (racemic) [Example 284, (rac)-7-{3-[(6-fluoronaphthalen-1-yl)oxy]propy}-3-methyl-2-[2-(morpholin-4-yl)ethyl]-2,10,11,12,13,15-hexahydropyrazolo[4′,3′:9,10][1,6]oxazacycloundecino[8,7,6-hi]indole-8-carboxylic Acid], the IC50 in data set [1] was determined as 0.00221 µM; in data set [4] (setting [10]), 2.82e-06 M; in data set [5] (setting [11]), 7.01e-06 M; in [6] (Homo sapiens, A2780, 72 h) it was 1.52e-05 M; in [7], 8.62e-06 M; in data set [8] (setting [12]), 2.46e-06 M. In data set [9] (setting [13]), the IC50 was 4.25e-06 M. In addition, the EC50 in [2] (Homo sapiens, SU-DHL-5, 3 h) was 1.84 µM; in data set [3] (Homo sapiens, SU-DHL10, 3 h) it was 3.73 µM.
Consider `CCc1nn(C)c2c1-c1cccc3c(CCCOc4cccc5cc(F)ccc45)c(C(=O)O)n(c13)CCCCOC2` (racemic) [Example 287, (rac)-3-ethyl-7-{3-[(6-fluoronaphthalen-1-yl)oxy]propyl}-1-methyl-1,10,11,12,13,15-hexahydropyrazolo[4′,3′:9,10][1,6]oxazacycloundecino[8,7,6-hi]indole-8-carboxylic Acid], for which the IC50 came to 0.00206 µM in data set [1]; 7.2e-06 M in data set [4] (setting [14]); 8.1e-06 M in [5] (Homo sapiens, SU-DHL10, 72 h, 72 h); 3.05e-05 M in [6] (Homo sapiens, A2780, 72 h); 1.49e-05 M in [7]; 5.19e-06 M in data set [8] (setting [15]). Also, in [9] (setting [16]), the IC50 was 1.58e-05 M. In addition, the EC50 turned out to be 5.14 µM in [2] (Homo sapiens, SU-DHL-5, 3 h) and 13 µM in data set [3] (Homo sapiens, SU-DHL10, 3 h).
As to `Cn1nc(COc2cncnc2)c2c1COCCCCn1c(C(=O)O)c(CCCOc3cccc4ccccc34)c3cccc-2c31` (single isomer, unassigned) [Example 212, 1-methyl-7-[3-(naphthalen-1-yloxy)propyl]-3-[(pyrimidin-5-yloxy)methyl]-1,10,11,12,13,15-hexahydropyrazolo[4′,3′:9,10][1,6]oxazacycloundecino[8,7,6-hi]indole-8-carboxylic Acid], the IC50 in data set [1] is 0.00637 µM; in data set [4] (72 h incubation), 5.11e-06 M; in data set [5] (72 h incubation) it was 3.63e-06 M; in [6], 2.15e-05 M and > 3.3e-05 M; in [7], 5e-06 M; in [8] (setting [17]), 6.68e-06 M. In addition, the IC50 in data set [9] (setting [18]) is 2.02e-05 M. The values for the 50% effective concentration (EC50) in data set [2] and in data set [3] were 7.34 µM and 19.9 µM, respectively.
For `O=C(O)c1c(CCCOc2cccc3ccccc23)c2cccc3c2n1CCCCOCc1nn2c(c1-3)COCC2` (single isomer, unassigned) [Example 252, 1-[3-(naphthalen-1-yloxy)propyl]-4,5,6,7,12,13-hexahydro-9H,15H-[1,4]oxazino[4″,3″:1′,5′]pyrazolo[4′,3′:9,10][1,6]oxazacycloundecino[8,7,6-hi]indole-2-carboxylic acid-N-ethylethanamine Salt], the IC50 in [1] is 0.0037 µM; in [4] (72 h incubation) it was 8.78e-06 M; in data set [5] (72 h incubation), 6.31e-06 M; in data set [6], 3.16e-05 M and > 3.3e-05 M; in data set [7], 1.04e-05 M; in [8] (setting [17]), 5.17e-06 M. For the same compound, the IC50 in data set [9] (setting [18]) is 2.09e-05 M. The concentration for a half-maximal effect (EC50) in data set [2] amounted to 4.79 µM; in data set [3] it was 17.2 µM.
With `Cc1nn(C)c2c1-c1cccc3c(CCCOc4cccc5ccccc45)c(C(=O)O)n(c13)CCCCCN(C)C2` [Example 237, (rac)-1,3,15-Trimethyl-7-[3-(naphthalen-1-yloxy)propyl]-1,10,11,12,13,14,15,16-octahydropyrazolo[4′,3′:4,5][1,7]diazacyclododecino[3,2,1-hi]indole-8-carboxylic Acid], the IC50 in [1] stood at 0.00499 µM; in [4] (setting [10]), 5.65e-06 M; in data set [6] (Homo sapiens, A2780, 72 h), 1.9e-05 M; in data set [7], 1.35e-05 M; in data set [8] (setting [12]), 6.6e-06 M; in data set [9] (setting [13]), 1.18e-05 M. Besides, the EC50 in data set [2] (Homo sapiens, SU-DHL-5, 3 h) was found to be 5.55 µM; in data set [3] (Homo sapiens, SU-DHL10, 3 h), 15.7 µM.
For `Cc1nn(C)c2c1-c1cccc3c(CCCOc4cccc5c4CCCC5)c(C(=O)O)n(c13)CCCCCN(C)C2` [Example 240, (rac)-1,3,15-Trimethyl-7-[3-(5,6,7,8-tetrahydronaphthalen-1-yloxy)propyl]-1,10,11,12,13,14,15,16-octahydropyrazolo[4′,3′:4,5][1,7]diazacyclododecino[3,2,1-hi]indole-8-carboxylic Acid], the IC50 in data set [1] was 0.00885 µM; in [4] (setting [10]), 1.19e-05 M; in [6] (Homo sapiens, A2780, 72 h) it was over 3.3e-05 M; in data set [7] it was 2.56e-05 M; in data set [8] (setting [12]), 1.26e-05 M; in data set [9] (setting [13]) it was over 3.3e-05 M. In addition, the concentration for a half-maximal effect (EC50) is 11.6 µM in [2] (Homo sapiens, SU-DHL-5, 3 h) and over 33 µM in data set [3] (Homo sapiens, SU-DHL10, 3 h).
Turning to `Cc1nn(C)c2c1-c1cccc3c(CCCOc4cccc5cc(C(F)(F)F)ccc45)c(C(=O)O)n(c13)CCCCOC2` [Example 364, (rac)-10,12-dimethyl-1-(3-((6-(trifluoromethyl)naphthalen-1-yl)oxy)propyl) -4,5,67,9,10-hexahydropyrazolo[4′,3′:9,10][1,6]oxaazacycloundecino[8,7,6-hi]indole-2-carboxylic Acid], the IC50 in data set [1] is 0.0633 µM; in data set [4] (setting [14]), 9.54e-06 M; in [6] (Homo sapiens, A2780, 72 h), 1.69e-05 M; in data set [7], 2.42e-05 M; in [8] (setting [15]) it was 1.92e-05 M; in [9] (setting [16]) it was over 3.3e-05 M. Moreover, the IC50 in [9] (read-out: Cytotox SUDHL10 [M] (median), SUDHL10 cells, cytotoxicity induction, CellTiter-Glo, 5 h, median) was determined as 2.04e-05 M. The concentration giving a half-maximal response (EC50) in [2] (Homo sapiens, SU-DHL-5, 3 h) is 24.2 µM; in data set [3] (Homo sapiens, SU-DHL10, 3 h) it was over 33 µM.

The values are drawn from US10981932B2, “Macrocyclic indole derivatives” (Bayer Aktiengesellschaft, priority 2016, dated 2021).
